Structures are written as SMILES.

For test [1], the target named is T1, ΔF508-CFTR (Homo sapiens, UniProt P13569, DEL508-508).
T1 construct: host or cells: CFBE41o-, doxycycline-inducible
Put plainly: CFTR cell surface levels using HRP-tagged ΔF508-CFTR expressing CFBE cells, in the presence of a co-corrector. It counts as cell-based. As to conditions: HRP-tagged ΔF508-CFTR expressing CFBE cells, in the presence of 3 μM co-corrector; for EC50: read-out: EC50. In outline: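 Cells were seeded with 0.5 μg/mL doxycycline and held 68 h at 37 °C. Test compounds plus 3 μM co-corrector (final 0.1% DMSO) were then added for 20 h at 33 °C. Washed cells received HRP substrate, and luminescence was normalized between DMSO and 3 μM co-corrector controls.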

For test [2], the target named is T1, ΔF508-CFTR. Put plainly: CFTR cell surface levels using HRP-tagged ΔF508-CFTR expressing CFBE cells, intrinsic corrector capacity. It counts as cell-based. As to conditions: for EC50: read-out: EC50. In outline: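 Here the cells express ΔF508-CFTR with horseradish peroxidase inserted in extracellular loop 4, so only rescued channel at the surface gives luminescent signal. Compounds act on their own, 20 h at the reduced temperature of 33 °C; values are percent activity relative to DMSO and a 3 μM corrector.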

[3] abbreviates: HRP-tagged ΔF508-CFTR CFBE41o- cells, compounds alone (intrinsic corrector capacity), 20 hours at 33° C., positive control 3 μM corrector.
[4] abbreviates: HRP-tagged ΔF508-CFTR CFBE41o- cells, compounds alone (intrinsic corrector capacity), 20 hours at 33° C.
Where [5] appears, read: HRP-tagged ΔF508-CFTR expressing CFBE cells, intrinsic corrector capacity (no co-corrector), 33° C., 20 hours.

T1 sequence (P13569 with tags, fused parts or gaps DEL508-508): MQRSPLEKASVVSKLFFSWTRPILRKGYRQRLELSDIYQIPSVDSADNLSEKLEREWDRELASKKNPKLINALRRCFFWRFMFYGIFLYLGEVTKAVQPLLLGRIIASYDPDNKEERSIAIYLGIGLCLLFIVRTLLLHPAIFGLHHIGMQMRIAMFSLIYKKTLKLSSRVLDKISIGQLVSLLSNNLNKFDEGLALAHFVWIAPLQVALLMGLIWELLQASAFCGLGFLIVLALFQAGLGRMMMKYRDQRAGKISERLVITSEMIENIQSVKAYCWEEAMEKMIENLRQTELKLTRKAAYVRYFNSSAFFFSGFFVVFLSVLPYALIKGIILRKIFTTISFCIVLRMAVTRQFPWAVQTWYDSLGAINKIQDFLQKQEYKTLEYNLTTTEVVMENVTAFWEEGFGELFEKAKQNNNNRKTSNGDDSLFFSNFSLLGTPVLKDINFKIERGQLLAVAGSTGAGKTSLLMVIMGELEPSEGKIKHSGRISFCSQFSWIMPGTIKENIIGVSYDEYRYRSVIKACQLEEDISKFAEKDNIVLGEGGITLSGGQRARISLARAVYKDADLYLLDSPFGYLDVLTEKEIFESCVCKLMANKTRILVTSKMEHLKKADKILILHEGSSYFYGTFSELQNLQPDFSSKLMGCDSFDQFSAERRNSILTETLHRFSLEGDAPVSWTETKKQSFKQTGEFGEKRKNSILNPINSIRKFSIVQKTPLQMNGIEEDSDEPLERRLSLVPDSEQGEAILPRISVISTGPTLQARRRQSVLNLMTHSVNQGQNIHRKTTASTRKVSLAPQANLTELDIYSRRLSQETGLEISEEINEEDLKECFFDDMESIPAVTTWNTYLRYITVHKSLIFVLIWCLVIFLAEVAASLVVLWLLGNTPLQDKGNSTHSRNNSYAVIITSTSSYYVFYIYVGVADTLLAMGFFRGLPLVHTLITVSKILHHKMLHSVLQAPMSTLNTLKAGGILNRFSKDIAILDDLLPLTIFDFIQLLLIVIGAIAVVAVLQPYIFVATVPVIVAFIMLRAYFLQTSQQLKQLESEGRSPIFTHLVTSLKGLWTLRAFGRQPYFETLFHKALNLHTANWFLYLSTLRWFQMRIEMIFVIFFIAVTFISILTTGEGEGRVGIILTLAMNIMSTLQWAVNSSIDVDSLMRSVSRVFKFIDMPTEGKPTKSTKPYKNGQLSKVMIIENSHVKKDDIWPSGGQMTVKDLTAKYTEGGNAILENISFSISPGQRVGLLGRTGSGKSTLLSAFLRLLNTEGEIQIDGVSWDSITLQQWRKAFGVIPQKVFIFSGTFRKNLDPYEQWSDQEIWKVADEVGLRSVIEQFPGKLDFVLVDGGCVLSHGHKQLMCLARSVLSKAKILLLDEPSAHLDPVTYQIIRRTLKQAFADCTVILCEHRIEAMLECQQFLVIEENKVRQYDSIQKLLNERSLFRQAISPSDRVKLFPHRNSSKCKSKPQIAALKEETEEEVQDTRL

Broadly, the EC50 is the midpoint of the concentration-response curve. With `CC(C)c1nn(C2CCCCC2)c2nc(C(=O)O)cc(C3=CCN(C(=O)OC(C)(C)C)CC3)c12` [compound 371, 4-[1-(tert-butoxycarbonyl)-1,2,3,6-tetrahydropyridin-4-yl]-1-cyclohexyl-3-(propan-2-yl)-1H-pyrazolo[3,4-b]pyridine-6-carboxylic acid], the results for the “% Activation” value on ΔF508-CFTR [1] and at ΔF508-CFTR [2] (setting [3]) were 283.6% and 116.35%, respectively. The EC50 at ΔF508-CFTR [1] is 1.1 µM; at ΔF508-CFTR [2] (setting [4]), 1.31 µM.
Take `CS(=O)(=O)NC1CCN(c2cc(C(=O)O)nc3c2c(C2CCC2)nn3-c2ccccc2)CC1` [compound 519, 3-cyclobutyl-4-{4-[(methanesulfonyl)amino]piperidin-1-yl}-1-phenyl-1H-pyrazolo[3,4-b]pyridine-6-carboxylic acid]: the “% Activation” value is reported as 340.6% on ΔF508-CFTR [1] and 149.3% on ΔF508-CFTR [2] (setting [5]). In addition, the EC50 was found to be 3.33 µM at ΔF508-CFTR [1] and 3.34 µM on ΔF508-CFTR [2] (setting [5]).
For `CN1C(=O)CO[C@@H]2CN(c3cc(C(=O)O)nc4c3c(C3CCC3)nn4-c3ccccc3)C[C@@H]21` [compound 503, 3-cyclobutyl-4-[(4aS,7aR)-4-methyl-3-oxohexahydropyrrolo[3,4-b][1,4]oxazin-6(2H)-yl]-1-phenyl-1H-pyrazolo[3,4-b]pyridine-6-carboxylic acid], in that order: 220.8%, 65.78%, 3.19 µM and 3.34 µM.
`CC(C)c1nn(C2CCCCC2)c2nc(C(=O)O)cc(-c3cnc(N(C)C4CCN(C(=O)OC(C)(C)C)CC4)nc3)c12` [compound 374, 4-(2-{[1-(tert-butoxycarbonyl)piperidin-4-yl](methyl)amino}pyrimidin-5-yl)-1-cyclohexyl-3-(propan-2-yl)-1H-pyrazolo[3,4-b]pyridine-6-carboxylic acid]: the figures for the “% Activation” value at ΔF508-CFTR [1] and on ΔF508-CFTR [2] (setting [3]) were 297.35% and 114.2%, respectively. The EC50 on ΔF508-CFTR [1] worked out at 0.464 µM; on ΔF508-CFTR [2] (setting [4]) it was 0.595 µM.
For `COCCN1CCN(C2CCN(c3cc(C(=O)O)nc4c3c(C3CCC3)nn4-c3ccccc3)CC2)CC1` [compound 694, 3-cyclobutyl-4-{4-[4-(2-methoxyethyl)piperazin-1-yl]piperidin-1-yl}-1-phenyl-1H-pyrazolo[3,4-b]pyridine-6-carboxylic acid], on ΔF508-CFTR [1], the “% Activation” value is recorded as 421.9% and the EC50 was 0.535 µM. On ΔF508-CFTR [2] (setting [5]), the “% Activation” value came out at 177.4% and the EC50 turned out to be 0.487 µM.
With `Cc1nn(-c2ccccc2)c2nc(C(=O)O)cc(-c3ccc(NC4COC4)cc3)c12` [compound 112, 3-methyl-4-{4-[(oxetan-3-yl)amino]phenyl}-1-phenyl-1H-pyrazolo[3,4-b]pyridine-6-carboxylic acid], the “% Activation” value at ΔF508-CFTR [1] was 378.1%; at ΔF508-CFTR [2] (setting [3]), 200.55%. Further, the EC50 at ΔF508-CFTR [1] was determined as 2.37 µM; on ΔF508-CFTR [2] (setting [4]) it was 2.47 µM.
For `Cc1cccc(-n2nc(C(C)C)c3c(N4CCC5(C4)CC5(F)F)cc(C(=O)O)nc32)c1` (stereo not shown) [compound 271, 4-(1,1-difluoro-5-azaspiro[2.4]heptan-5-yl)-1-(3-methylphenyl)-3-(propan-2-yl)-1H-pyrazolo[3,4-b]pyridine-6-carboxylic acid], in that order: 323.5%, 144.2%, 0.396 µM and 0.924 µM.
Regarding `COCCN1CCN(C2CCN(c3cc(C(=O)O)nc4c3c(C3CCC3)nn4-c3ccc(F)cc3)CC2)CC1` [compound 896, 3-cyclobutyl-1-(4-fluorophenyl)-4-{4-[4-(2-methoxyethyl)piperazin-1-yl]piperidin-1-yl}-1H-pyrazolo[3,4-b]pyridine-6-carboxylic acid], on ΔF508-CFTR [1], the “% Activation” value was 513.5% and the EC50 came to 0.7 µM. For the same compound, at ΔF508-CFTR [2] (setting [5]), the “% Activation” value came out at 358.8% and the EC50 was 1.63 µM.
Regarding `CC(C)Oc1nn(C2CCCCC2)c2nc(C(=O)O)cc(-c3ccc(C(=O)N4CCN(C)CC4)cc3)c12` [compound 764, 1-cyclohexyl-4-[4-(4-methylpiperazine-1-carbonyl)phenyl]-3-[(propan-2-yl)oxy]-1H-pyrazolo[3,4-b]pyridine-6-carboxylic acid], on ΔF508-CFTR [1], the “% Activation” value is listed as 255.65% and the EC50 was determined as 2.41 µM. On ΔF508-CFTR [2] (setting [5]), the “% Activation” value is 85.92% and the EC50 came out at 3.33 µM.
For `O=C(O)c1cc(N2CCC(F)CC2)c2c(C3CCC3)nn(-c3ccccc3)c2n1` [compound 444, 3-cyclobutyl-4-(4-fluoropiperidin-1-yl)-1-phenyl-1H-pyrazolo[3,4-b]pyridine-6-carboxylic acid], in that order: 282.8%, 0.543 µM, 111.15% and 1.11 µM.
For `C[C@H]1C[C@H](c2nn(-c3ccccc3)c3nc(C(=O)O)cc(-c4ccc(N5CCC(C#N)CC5)nc4)c32)C1` [compound 551, 4-[6-(4-cyanopiperidin-1-yl)pyridin-3-yl]-3-(trans-3-methylcyclobutyl)-1-phenyl-1H-pyrazolo[3,4-b]pyridine-6-carboxylic acid], in that order: 424.35%, 0.0872 µM, 223.1% and 0.37 µM.
Consider `Cc1nn(-c2ccccc2)c2nc(C(=O)O)cc(OC3COC3)c12` [compound 341, 3-methyl-4-[(oxetan-3-yl)oxy]-1-phenyl-1H-pyrazolo[3,4-b]pyridine-6-carboxylic acid], for which the “% Activation” value on ΔF508-CFTR [1] stood at 149.55%; at ΔF508-CFTR [2] (setting [3]) it was 25.115%. In addition, the results for the EC50 at ΔF508-CFTR [1] and at ΔF508-CFTR [2] (setting [4]) were 4.09 µM and 4.17 µM, respectively.
For `CC(=O)N1CCC(n2nc(C(C)C)c3c(-c4ccc(N5CCOCC5)cc4)cc(C(=O)O)nc32)CC1` [compound 71, 1-(1-acetylpiperidin-4-yl)-4-[4-(morpholin-4-yl)phenyl]-3-(propan-2-yl)-1H-pyrazolo[3,4-b]pyridine-6-carboxylic acid], in that order: 126.8%, 17.23%, more than 10 µM and more than 10 µM.
Consider `CN(C)CCOc1cc(C(=O)O)nc2c1c(C1CCC1)nn2-c1ccccc1` [compound 637, 3-cyclobutyl-4-[2-(dimethylamino)ethoxy]-1-phenyl-1H-pyrazolo[3,4-b]pyridine-6-carboxylic acid], for which, at ΔF508-CFTR [1], the “% Activation” value was found to be 174.45% and the EC50 turned out to be 3.01 µM. Besides, on ΔF508-CFTR [2] (setting [5]), the “% Activation” value came out at 49.14% and the EC50 stood at 3.33 µM.
For `N#CC1CCN(c2ccc(-c3cc(C(=O)O)nc4c3c(C3CCC3)nn4-c3cccc(N4CCCC4)c3)cc2)CC1` [compound 247, 4-[4-(4-cyanopiperidin-1-yl)phenyl]-3-cyclobutyl-1-[3-(pyrrolidin-1-yl)phenyl]-1H-pyrazolo[3,4-b]pyridine-6-carboxylic acid], the “% Activation” value stood at 569.07% on ΔF508-CFTR [1] and 390.27% at ΔF508-CFTR [2] (setting [3]). For the same compound, the EC50 amounted to 0.332 µM at ΔF508-CFTR [1] and 0.42 µM at ΔF508-CFTR [2] (setting [4]).
For `CC(=O)NC1CCN(c2ccc(-c3cc(C(=O)O)nc4c3c(C)nn4-c3ccccc3)cc2)C1` (stereo not shown) [compound 156, 4-[4-(3-acetamidopyrrolidin-1-yl)phenyl]-3-methyl-1-phenyl-1H-pyrazolo[3,4-b]pyridine-6-carboxylic acid], in that order: 411.55%, 175.5%, 3.16 µM and 3.34 µM.
For `Cc1nn(-c2ccccc2)c2nc(C(=O)O)cc(N3CCC(C(=O)N(C)C)CC3)c12` [compound 319, 4-[4-(dimethylcarbamoyl)piperidin-1-yl]-3-methyl-1-phenyl-1H-pyrazolo[3,4-b]pyridine-6-carboxylic acid], in that order: 270.75%, 80.905%, 4.17 µM and 2.51 µM.
As for `CN1CCC(C2CCN(c3cc(C(=O)O)nc4c3c(C3CCC3)nn4-c3ccccc3)CC2)CC1` [compound 454, 3-cyclobutyl-4-(1′-methyl[4,4′-bipiperidin]-1-yl)-1-phenyl-1H-pyrazolo[3,4-b]pyridine-6-carboxylic acid], at ΔF508-CFTR [1], the “% Activation” value worked out at 470.3% and the EC50 came to 0.636 µM. On ΔF508-CFTR [2] (setting [5]), the “% Activation” value was 253.5% and the EC50 was 0.998 µM.
Regarding `Cc1ncn(C)c(=O)c1CCN1CCN(c2cc(C(=O)O)nc3c2c(C2CCC2)nn3-c2ccccc2)CC1` [compound 502, 3-cyclobutyl-4-{4-[2-(1,4-dimethyl-6-oxo-1,6-dihydropyrimidin-5-yl)ethyl]piperazin-1-yl}-1-phenyl-1H-pyrazolo[3,4-b]pyridine-6-carboxylic acid], at ΔF508-CFTR [1], the “% Activation” value was found to be 327% and the EC50 was 1.35 µM. For the same compound, on ΔF508-CFTR [2] (setting [5]), the “% Activation” value stood at 152% and the EC50 worked out at 3.34 µM.
